Test [1] deals with T1, Solute carrier family 22 member 2 (Homo sapiens, UniProt O15244).
T1 sequence (O15244 whole entry): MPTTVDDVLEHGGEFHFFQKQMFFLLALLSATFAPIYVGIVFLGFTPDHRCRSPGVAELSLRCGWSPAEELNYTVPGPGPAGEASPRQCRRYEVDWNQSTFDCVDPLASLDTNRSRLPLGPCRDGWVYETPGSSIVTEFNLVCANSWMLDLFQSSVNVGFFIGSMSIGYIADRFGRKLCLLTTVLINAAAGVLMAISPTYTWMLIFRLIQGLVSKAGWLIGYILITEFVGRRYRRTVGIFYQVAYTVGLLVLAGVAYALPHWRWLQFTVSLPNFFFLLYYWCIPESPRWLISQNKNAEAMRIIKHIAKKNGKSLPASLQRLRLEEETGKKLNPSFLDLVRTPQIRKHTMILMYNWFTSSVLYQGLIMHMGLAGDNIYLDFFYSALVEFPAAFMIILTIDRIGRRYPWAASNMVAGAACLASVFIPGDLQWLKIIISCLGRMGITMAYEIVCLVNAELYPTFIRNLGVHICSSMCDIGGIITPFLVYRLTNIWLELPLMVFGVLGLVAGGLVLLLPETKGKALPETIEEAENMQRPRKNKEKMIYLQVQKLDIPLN
The experiment in a line: TP_TRANSPORTER: inhibition of TEA uptake in OCT2 expressing oocytes.

Test [2] has as its target T2, Organic anion transporter 3 (Homo sapiens, UniProt Q8TCC7).
T2 sequence (Q8TCC7 whole entry): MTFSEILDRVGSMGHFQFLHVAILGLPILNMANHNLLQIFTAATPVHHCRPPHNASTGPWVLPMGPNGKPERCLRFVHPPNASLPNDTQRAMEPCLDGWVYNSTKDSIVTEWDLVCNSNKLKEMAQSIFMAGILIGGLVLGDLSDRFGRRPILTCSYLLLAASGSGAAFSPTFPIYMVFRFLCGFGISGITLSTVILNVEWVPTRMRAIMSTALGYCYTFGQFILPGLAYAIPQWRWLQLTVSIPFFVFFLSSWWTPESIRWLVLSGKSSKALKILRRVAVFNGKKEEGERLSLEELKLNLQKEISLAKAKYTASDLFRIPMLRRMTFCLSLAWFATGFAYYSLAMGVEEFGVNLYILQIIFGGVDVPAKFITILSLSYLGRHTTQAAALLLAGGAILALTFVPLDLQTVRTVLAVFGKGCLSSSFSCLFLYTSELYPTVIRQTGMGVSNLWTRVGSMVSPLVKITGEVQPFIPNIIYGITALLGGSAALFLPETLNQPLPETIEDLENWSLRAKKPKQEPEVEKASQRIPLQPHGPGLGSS
In words: TP_TRANSPORTER: inhibition of E1S uptake in OAT3 expressing oocytes.

As a reminder, the pKi is −log10 of the Ki, conventionally taken in molar units.

Each structure is given as a SMILES string. pKi: −log10 of the molar value.

Turning to `CN/C(=N/CCSCc1nc[nH]c1C)NC#N` [CIMETIDINE], the pKi in test [1] is 4.24; in test [2] it was 4.28.

Turning to `NC(N)=Nc1nc(CSCCC(N)=NS(N)(=O)=O)cs1` [FAMOTIDINE], the negative logarithm of the Ki (pKi) in test [1] is 2.74; in test [2] it was 3.52.

The record behind these values is ChEMBL document CHEMBL2074288 (Eur J Pharmacol, 2004).
